Data reported in patent US11840528B2 (Hoffmann-La Roche Inc., priority 2018, dated 2023).

Assays:
h-GABA-A α5β3γ2 [1] = biological target: T1, h-GABA-A α5β3γ2 (Homo sapiens, UniProt P18507+P31644); test: [3H]flumazenil competition binding assay, membranes of HEK293 cells expressing GABAA receptors; settings: displacement of [3H]-Flumazenil 0.5 nM, HEK293 cells expressing human receptors, mean of two determinations; Table 1
Procedure, shortened: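 Receptor source: human α5β3γ2 transiently transfected into HEK293 cells, membranes in pH 7.5 Krebs-tris. Filtration through GF/C, then scintillation counting.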

h-GABA-A α5β3γ2 [2] = biological target: T1, h-GABA-A α5β3γ2; test: Two-electrode voltage clamp electrophysiology in Xenopus laevis oocytes expressing GABAA receptors, modulation of GABA EC20 current; type: cell-based; parameters: host or cells: Xenopus laevis oocytes micro-injected with RNA transcripts of the subunits; settings: Table 1; for Efficacy (GABA) %: % modulation of GABA EC20 = 100*(Fold increase-1); for Fold increase h-GABA-A α5β3γ2 oocyte: test compound at approx. 30 fold its Ki, GABA at EC20
Procedure, shortened: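 Modulation is reported as % of the GABA EC20 current, calculated as 100*(Fold increase−1) from the peak ratio between a second GABA response carrying compound (applied at roughly 30-fold Ki) and a preceding control response. Oocytes expressing human α5β3γ2 were clamped at −80 mV at room temperature, 3–5 days after injection.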

| Ki (h-GABA-A α5β3γ2 [1]) [nM] | Efficacy (GABA) % (h-GABA-A α5β3γ2 [2]) [%] | Fold increase h-GABA-A α5β3γ2 oocyte (h-GABA-A α5β3γ2 [2]) | SMILES |
| --- | --- | --- | --- |
| 8.6 | 87 | 1.87 | CCOC1CN(c2cnn(Cc3c(-c4ccc(C)nn4)noc3CF)c(=O)c2)C1 [Example 279, 5-(3-ethoxyazetidin-1-yl)-2-((5-(fluoromethyl)-3-(6-methylpyridazin-3-yl)isoxazol-4-yl)methyl)pyridazin-3(2H)-one] |
| 9.4 | 105 | 2.05 | COC1CN(c2cnn(Cc3c(-c4ccc(C(F)(F)F)nn4)noc3C)c(=O)c2)C1 [Example 281, 5-(3-methoxyazetidin-1-yl)-2-((5-methyl-3-(6-(trifluoromethyl)pyridazin-3-yl)isoxazol-4-yl)methyl)pyridazin-3(2H)-one] |
| 16 | 74 | 1.74 | Cc1ccc(-c2noc(CF)c2Cn2ncc(N3CC4(CCCO4)C3)cc2=O)nn1 [Example 295, 2-((5-(fluoromethyl)-3-(6-methylpyridazin-3-yl)isoxazol-4-yl)methyl)-5-(5-oxa-2-azaspiro[3.4]octan-2-yl)pyridazin-3(2H)-one] |
| 2.5 | 100 | 2 | Cc1ccc(-c2noc(C)c2Cn2ncc(N3CC(OC4(C)CC4)C3)cc2=O)nn1 [Example 305, 5-[3-(1-methylcyclopropoxy)azetidin-1-yl]-2-[[5-methyl-3-(6-methylpyridazin-3-yl)isoxazol-4-yl]methyl]pyridazin-3-one] |
| 1.2 | 101 | 2.01 | Cc1ccc(-c2noc(C)c2Cn2ncc(N3CC(OCC(F)F)C3)cc2=O)nn1 [Example 306, 5-(3-(2,2-difluoroethoxy)azetidin-1-yl)-2-((5-methyl-3-(6-methylpyridazin-3-yl)isoxazol-4-yl)methyl)pyridazin-3(2H)-one] |
| 14.2 | 105 | 2.05 | Cc1ccc(-c2noc(C)c2Cn2ncc(N3CC4(CCC(C)(C)O4)C3)cc2=O)nn1 [Example 310, 5-(6,6-dimethyl-5-oxa-2-azaspiro[3.4]octan-2-yl)-2-[[5-methyl-3-(6-methylpyridazin-3-yl)isoxazol-4-yl]methyl]pyridazin-3-one] |
| 4 | 140 | 2.4 | Cc1ccc(-c2noc(C)c2Cn2ncc(N3CC4(CC(OC(F)F)C4)C3)cc2=O)nn1 [Example 315, 5-[6-(difluoromethoxy)-2-azaspiro[3.3]heptan-2-yl]-2-[[5-methyl-3-(6-methylpyridazin-3-yl)isoxazol-4-yl]methyl]pyridazin-3-one] |
| 20 | 166 | 2.66 | CCc1onc(-c2ccc(C)nn2)c1Cn1ncc(N2CC3(CCCCO3)C2)cc1=O [Example 324, 2-((5-ethyl-3-(6-methylpyridazin-3-yl)isoxazol-4-yl)methyl)-5-(5-oxa-2-azaspiro[3.5]nonan-2-yl)pyridazin-3(2H)-one] |

Continued, compound first:

| SMILES | Ki (h-GABA-A α5β3γ2 [1]) [nM] | Efficacy (GABA) % (h-GABA-A α5β3γ2 [2]) [%] | Fold increase h-GABA-A α5β3γ2 oocyte (h-GABA-A α5β3γ2 [2]) |
| --- | --- | --- | --- |
| Cc1onc(-c2ccc(Cl)nn2)c1Cn1ncc(N2CC3(C2)CC(F)(F)CO3)cc1=O [Example 269, 2-((3-(6-chloropyridazin-3-yl)-5-methylisoxazol-4-yl)methyl)-5-(7,7-difluoro-5-oxa-2-azaspiro[3.4]octan-2-yl)pyridazin-3(2H)-one] | 1.4 | 70 | 1.7 |
| Cc1onc(-c2ccc(Cl)nc2)c1Cn1ncc(N2CCC3(CCO3)CC2)cc1=O [Example 270, 2-((3-(6-chloropyridin-3-yl)-5-methylisoxazol-4-yl)methyl)-5-(1-oxa-7-azaspiro[3.5]nonan-7-yl)pyridazin-3(2H)-one] | 27.8 | 144 | 2.44 |
| Cc1onc(-c2ccc(Cl)nn2)c1Cn1ncc(N2CC(OC(C)(C)C)C2)cc1=O [Example 271, 5-(3-(tert-butoxy)azetidin-1-yl)-2-((3-(6-chloropyridazin-3-yl)-5-methylisoxazol-4-yl)methyl)pyridazin-3(2H)-one] | 7.3 | 90 | 1.9 |
| CCOC1CN(c2cnn(Cc3c(-c4ccc(Cl)nc4)noc3C)c(=O)c2Cl)C1 [Example 272, 4-chloro-2-((3-(6-chloropyridin-3-yl)-5-methylisoxazol-4-yl)methyl)-5-(3-ethoxyazetidin-1-yl)pyridazin-3(2H)-one] | 26.4 | 135 | 2.35 |
| Cc1onc(-c2ccc(Cl)nc2)c1Cn1ncc(N2CCN(c3cncnc3)CC2)cc1=O [Example 277, 2-((3-(6-chloropyridin-3-yl)-5-methylisoxazol-4-yl)methyl)-5-(4-(pyrimidin-5-yl)piperazin-1-yl)pyridazin-3(2H)-one] | 3.4 | 131 | 2.31 |
| Cc1onc(-c2ccc(Cl)nc2)c1Cn1ncc(N2CCN(c3cccnc3)CC2)cc1=O [Example 278, 2-((3-(6-chloropyridin-3-yl)-5-methylisoxazol-4-yl)methyl)-5-(4-(pyridin-3-yl)piperazin-1-yl)pyridazin-3(2H)-one] | 8 | 108 | 2.08 |
| Cc1nonc1N1CCN(c2cnn(Cc3c(-c4ccc(Cl)nc4)noc3C)c(=O)c2)CC1 [Example 280, 2-((3-(6-chloropyridin-3-yl)-5-methylisoxazol-4-yl)methyl)-5-(4-(4-methyl-1,2,5-oxadiazol-3-yl)piperazin-1-yl)pyridazin-3(2H)-one] | 7.5 | 166 | 2.66 |
| COc1ncc(-c2cnn(Cc3c(-c4ccc(Cl)nn4)noc3C)c(=O)c2)cc1Cl [Example 282, 5-(5-chloro-6-methoxypyridin-3-yl)-2-((3-(6-chloropyridazin-3-yl)-5-methylisoxazol-4-yl)methyl)pyridazin-3(2H)-one] | 1.5 | 166 | 2.66 |
| Cc1ncccc1N1CCN(c2cnn(Cc3c(-c4ccc(Cl)nc4)noc3C)c(=O)c2)CC1 [Example 285, 2-((3-(6-chloropyridin-3-yl)-5-methylisoxazol-4-yl)methyl)-5-(4-(2-methylpyridin-3-yl)piperazin-1-yl)pyridazin-3(2H)-one] | 2.6 | 84 | 1.84 |
| CO[C@H]1CN(c2cnn(Cc3c(-c4ccc(Cl)nc4)noc3C)c(=O)c2)[C@H]1C [Example 286, 2-((3-(6-chloropyridin-3-yl)-5-methylisoxazol-4-yl)methyl)-5-((2S,3S)-3-methoxy-2-methylazetidin-1-yl)pyridazin-3(2H)-one] | 3.3 | 112 | 2.12 |
| Cc1onc(-c2ccc(Cl)nc2)c1Cn1ncc(N2C[C@@H](O)[C@H]2C)cc1=O [Example 289, 2-((3-(6-chloropyridin-3-yl)-5-methylisoxazol-4-yl)methyl)-5-((2R,3R)-3-hydroxy-2-methylazetidin-1-yl)pyridazin-3(2H)-one] | 2.2 | 68 | 1.68 |
| CCO[C@H]1CN(c2cnn(Cc3c(-c4ccc(Cl)nc4)noc3C)c(=O)c2)[C@H]1C [Example 291, 2-((3-(6-chloropyridin-3-yl)-5-methylisoxazol-4-yl)methyl)-5-((2S,3S)-3-ethoxy-2-methylazetidin-1-yl)pyridazin-3(2H)-one] | 2.8 | 124 | 2.24 |
| CCO[C@@H]1CN(c2cnn(Cc3c(-c4ccc(Cl)nc4)noc3C)c(=O)c2)[C@@H]1C [Example 294, 2-((3-(6-chloropyridin-3-yl)-5-methylisoxazol-4-yl)methyl)-5-((2R,3R)-3-ethoxy-2-methylazetidin-1-yl)pyridazin-3(2H)-one] | 41.8 | 117 | 2.17 |
| Cc1ccc(-c2noc(C)c2Cn2ncc(N3CCC4(CCCCO4)CC3)cc2=O)nn1 [Example 302, 2-[[5-methyl-3-(6-methylpyridazin-3-yl)isoxazol-4-yl]methyl]-5-(1-oxa-9-azaspiro[5.5]undecan-9-yl)pyridazin-3-one] | 2 | 149 | 2.49 |
| COC1CC2(C1)CN(c1cnn(Cc3c(-c4ccc(Cl)nc4)noc3C)c(=O)c1)C2 [Example 303] | 23.7 | 138 | 2.38 |
| Cc1ccc(-c2noc(C)c2Cn2ncc(N3CC4(CCCCCO4)C3)cc2=O)nn1 [Example 316, 2-[[5-methyl-3-(6-methylpyridazin-3-yl)isoxazol-4-yl]methyl]-5-(5-oxa-2-azaspiro[3.6]decan-2-yl)pyridazin-3-one] | 4.3 | 100 | 2 |
| Cc1onc(-c2ccc(Cl)nc2)c1Cn1ncc(N2CC3(C[C@H](C)CCO3)C2)cc1=O [Example 322, (R)-2-((3-(6-chloropyridin-3-yl)-5-methylisoxazol-4-yl)methyl)-5-(8-methyl-5-oxa-2-azaspiro[3.5]nonan-2-yl)pyridazin-3(2H)-one] | 71.1 | 73 | 1.73 |
